# According to US12214036B2, “Combination therapy comprising AXL/MER and PD-1/PD-L1 inhibitors” (Incyte Corporation, priority 2020, dated 2025):
# Legend:
# 179 kinases (c-Met) = test: Comprehensive kinase study (179 kinases); type: biochemical; details: evaluated at 200 nM
# Procedure: Compound 1 was also evaluated at 200 nM in a comprehensive kinase study, which included 179 kinases. […] The mode of inhibition with respect to ATP concentration was evaluated using a MER kinase assay.
# CTG-2041 tumors = test: Sarcoma PDX model CTG-2041 (angiosarcoma); type: in vivo, athymic nude mice
# Procedure: Macrophages were allowed to thaw on ice before being lysed with 250 μL/well of 1× Lysis Buffer (Cell Signaling Technology; #9803) and Halt protease and phosphatase inhibitors (ThermoFisher Scientific) for 1 hour at 4° C. The lysed cells were scraped and transferred to an Eppendorf vial on ice. The lysates were centrifuged at 12,700 rpm for 15 minutes at 4° C. PDX tumors were weighed and homogenized with lysis buffer supplemented with protease and phosphatase inhibitor cocktails (Roche, Basel, Switzerland; #11836170001). Tumors were lysed on ice for 30 minutes, followed by centrifugation at 13,000 rpm for 10 minutes. Protein lysates were quantified using BCA Protein Assay Kit (Pierce, ThermoFisher Scientific; #23225). Lysates were transferred to a new tube together with 6× Laemmli SDS sample buffer (Alfa Aesar, Haverhill, Mass.) and the samples were heated for 6 minutes at 95° C. Approximately 50 μg of protein sample was loaded per well using Novex™ 8-16% Tris-Glycine Mini Gels or 4-12% Tris-Glycine Novex WedgeGels (Invitrogen, Carlsbad, Calif.). The proteins were transferred to a nitrocellulose membrane using an iBlot (ThermoFisher Scientific) dry blotting system. The membranes were blocked with 0.5% nonfat dry milk in wash buffer (100 mM NaCl, 10 mM Tris-HCl, pH 8.0, 0.1% Tween 20) for 1 hour at room temperature. The primary antibody used for pMER was from PhosphoSolutions (Aurora, Colo.; #p186-749). The remaining antibodies were obtained from Cell Signaling Technology: MER (#4319), pAXL (#5724), AXL, (#4566), GAS6 (#67202), pAKT (#4060), AKT (#9272), and β-Actin (#4970). Primary antibodies were added at 1:500 and 1:1000, respectively, in 0.5% milk/wash buffer and rocked overnight at 4° C. The membranes were washed three times in wash buffer before incubation with the secondary antibody (anti-rabbit IgG1-HRP; Cell Signaling Technology) at 1:2500 in 0.5% milk/wash buffer for 2 hours at room temperature. The membranes were washed again before the bands were detected with SuperSignal West Dura Extended Duration Chemiluminescent substrate (ThermoFisher Scientific) and were visualized using the Fluorochem M Digital Imager (Protein Simple, San Jose, Calif.).
# MBT-2 cells were obtained from the Japanese Collection of Research Bioresources Cell Bank and were maintained in DMEM supplemented with 10% FBS. MC38 cells were obtained from the NCI. 4T1 cells were obtained from ATCC and maintained in RPMI media supplemented with 10% FBS. For MBT-2 experiments, 5×10^5 MBT-2 cells were inoculated subcutaneously into the right hind flank of 6- to 8-week-old C3H mice or athymic nude mice (Charles River Laboratories, Wilmington, Mass.). For MC38 studies, 12-week old female C57BL/6 mice were inoculated with brei of MC38 tumors (in-vivo passage 6) into the right hind flank. For 4T1 studies, 7.5×10^5 4 T1 cells were inoculated subcutaneously into the right hind flank of 6- to 8-week-old female BALB/c mice or athymic nude mice (Charles River Laboratories). Mice were randomized by tumor volume with n=10-12 per group. Compound 1 was dosed orally twice a day (BID) continuously from the start to the end of study. In the MC38 study, anti-programmed death ligand 1 (PD-L1) (BE0101, Bio X Cell, West Lebanon, NH) was dosed intraperitoneally at 15 mg/kg twice a week. […] Mice were monitored for tumor growth and overt tolerability over the course of the experiment. […]
smiles,measurement,setting,value
"CC(C)C(=O)N1CCC(c2cc(-c3ccc(NC(=O)c4cn(C(C)C)c(=O)n(-c5ccccn5)c4=O)cc3)c3c(N)ncnn23)CC1 [Compound 1, N-(4-(4-Amino-7-(1-isobutyrylpiperidin-4-yl)pyrrolo[1,2-f][1,2,4]triazin-5-yl)phenyl)-1-isopropyl-2,4-dioxo-3-(pyridin-2-yl)-1,2,3,4-tetrahydropyrimidine-5-carboxamide]",inhibition of other kinases,179 kinases (c-Met),did not inhibit any other kinases
same,selectivity for AXL and MER compared to c-Met,179 kinases (c-Met),approximately 60 fold
same,TGI,"CTG-2041 tumors; CTG-2041, equivalent activity at 10, 30 and 100 mg/kg BID oral, FIG. 9A",95%
same,GAS6 levels in tumors (Western blot),"CTG-2041 tumors; CTG-2041 tumors, FIG. 9D",increased
same,pAKT in tumors (Western blot),"CTG-2041 tumors; CTG-2041 tumors, FIG. 9D",inhibited
same,pAXL and pMER in tumors (Western blot),"CTG-2041 tumors; CTG-2041 tumors, FIG. 9D",inhibited
same,total MER levels in tumors (Western blot),"CTG-2041 tumors; CTG-2041 tumors, FIG. 9D",increased
